From the supplement of paper PMC9151546
Where a name gives a salt, the structure may show the parent alone. ± gives the standard deviation of the averaged measurements.

Legend:
CHO-K1 [1] = experiment: benchmark concentration for 60% increase in hypodiploid frequency (BMC60); higher = less potent aneugen
Method: (§1)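 Benchmark concentration modelling (PROAST, Hill/exponential model families) of the 19-concentration flow-cytometric micronucleus assay in CHO-K1 cells, with and without rat liver S9. Only non-cytotoxic and adequate (relative survival >=40%) concentrations were used. BMR was a 30% increase in %MN (BMC30) or a 60% increase in %hypodiploid (BMC60) over control.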

CHO-K1 [2] = experiment: benchmark concentration for 30% increase in micronucleus frequency (BMC30); higher = less potent clastogen
Method: as §1

[3] = S9 metabolic activation: without S9
[4] = S9 metabolic activation: with S9

Row | Compound | benchmark concentration (CHO-K1 [1]; [3]) [µM] | benchmark concentration (CHO-K1 [2]; [3]) [µM] | benchmark concentration (CHO-K1 [1]; [4]) [µM] | benchmark concentration (CHO-K1 [2]; [4]) [µM]
1 | C[C@]12CC[C@@H]3c4ccc(O)cc4CC[C@H]3[C@@H]1CC[C@@H]2O [17beta-Estradiol] | 9.9 | 8.1 |  | 
2 | c1cc2c3c(cccc3c1)CC2 [Acenaphthene] |  | 78 | 89 | 59
3 | CCCCc1oc2ccccc2c1C(=O)c1cc(I)c(OCCN(CC)CC)c(I)c1 [Amiodarone hydrochloride] |  |  | 11 | 16
4 | O=C1c2c(O)cccc2Cc2cccc(O)c21 [Anthralin] | 16 | 110 |  | 
5 | Cn1cnc([N+](=O)[O-])c1Sc1ncnc2[nH]cnc12 [Azathioprine] | 18 | 83 | 170 | 
6 | c1ccc(/N=N/c2ccccc2)cc1 [Azobenzene] | 87 |  | 37 | 32
7 | Nc1ccc(-c2ccc(N)cc2)cc1 [Benzidine] | 18 | 18 |  | 
8 | c1ccc2c(c1)-c1cccc3c1c-2cc1ccccc13 [Benzo(b)fluoranthene] | 93 | 130 |  | 
9 | O=C(c1ccccc1)c1ccccc1 [Benzophenone] | 28 | 59 |  | 
10 | OCc1ccccc1 [Benzyl alcohol] | 93 | 43 |  | 
11 | CC(C)(c1ccc(O)cc1)c1ccc(O)cc1 [Bisphenol A] | 48 | 71 |  | 
12 | Oc1ccc2ccccc2c1N=Nc1ccccc1 [C.I. Solvent Yellow 14] | 11 | 23 | 91 | 
13 | O=C1CCCCCN1 [Caprolactam] | 150 | 44 |  | 
14 | O=C(O)C1C(C(=O)O)C2(Cl)C(Cl)=C(Cl)C1(Cl)C2(Cl)Cl (centres undefined) [Chlorendic acid] | 97 | 110 |  | 
15 | CCOP(=S)(OCC)Oc1nc(Cl)c(Cl)cc1Cl [Chlorpyrifos] | 69 |  | 42 | 29
16 | CC(C)(OO)c1ccccc1 [Cumene hydroperoxide] | 63 | 56 |  | 
17 | NC1CCCCC1 [Cyclohexylamine] | 43 | 72 |  | 
18 | Nc1ccn([C@@H]2O[C@H](CO)[C@@H](O)[C@@H]2O)c(=O)n1 [Cytarabine hydrochloride] |  |  | 27 | 5.9
19 | O=c1c(-c2ccc(O)cc2)coc2cc(O)ccc12 [Daidzein] |  |  | 47 | 14
20 | C=CCOC(=O)c1ccccc1C(=O)OCC=C [Diallyl phthalate] | 65 |  |  | 61
21 | N#CC(Br)Br [Dibromoacetonitrile] | 15 | 32 |  | 
22 | O=C(O)C(Cl)Cl [Dichloroacetic acid] | 95 | 94 |  | 

Row | Compound | benchmark concentration (CHO-K1 [1]; [3]) [µM] | benchmark concentration (CHO-K1 [2]; [3]) [µM] | benchmark concentration (CHO-K1 [1]; [4]) [µM] | benchmark concentration (CHO-K1 [2]; [4]) [µM]
23 | COP(=O)(OC)OC=C(Cl)Cl [Dichlorvos] | 90 | 66 |  | 
24 | ClC1=C(Cl)[C@]2(Cl)[C@@H]3[C@@H]4C[C@@H]([C@H]5O[C@@H]45)[C@@H]3[C@@]1(Cl)C2(Cl)Cl [Dieldrin] | 90 | 74 |  | 
25 | CCOC(=O)c1ccccc1C(=O)OCC [Diethyl phthalate] | 99 | 100 |  | 
26 | CC(=O)OC1CC(C)OC(C)O1 (centres undefined) [Dimethoxane] |  | 30 | 59 | 86
27 | C[C@]12CC[C@@H]3c4ccc(O)cc4CC[C@H]3[C@@H]1CCC2=O [Estrone] | 5.3 | < 4.5 |  | 
28 | O=C(O)C1=NN(c2ccc(S(=O)(=O)O)cc2)C(=O)C1N=Nc1ccc(S(=O)(=O)O)cc1 (centres undefined) [FD&C Yellow 5] | 47 | 25 |  | 15
29 | CN(C)c1ccc(N=NS(=O)(=O)O)cc1 [Fenaminosulf] | 41 | 27 |  | 
30 | Nc1nc(=O)c2nc(CNc3ccc(C(=O)N[C@@H](CCC(=O)O)C(=O)O)cc3)cnc2[nH]1 [Folic acid] | 110 |  |  | 57
31 | CN(C)c1ccc(C(=C2C=CC(=[N+](C)C)C=C2)c2ccc(N(C)C)cc2)cc1 [Gentian Violet] |  |  | 0.23 | 0.91
32 | ClC1=C(Cl)C2(Cl)C3C4OC4C(Cl)C3C1(Cl)C2(Cl)Cl (centres undefined) [Heptachlor epoxide] | 28 | 25 |  | 45
33 | ClC1=C(Cl)C2(Cl)C3C(Cl)C=CC3C1(Cl)C2(Cl)Cl (centres undefined) [Heptachlor] | 20 | 64 | 19 | 11
34 | NS(=O)(=O)c1cc2c(cc1Cl)NCNS2(=O)=O [Hydrochlorothiazide] | 73 |  |  | 29
35 | Oc1ccc(O)cc1 [Hydroquinone] |  |  | 90 | 63
36 | NC(=O)NO [Hydroxyurea] | 29 | 19 |  | 
37 | NNC(=O)c1ccncc1 [Isoniazid] | 51 |  |  | 21
38 | CN(Cc1cnc2nc(N)nc(N)c2n1)c1ccc(C(=O)N[C@@H](CCC(=O)O)C(=O)O)cc1 [Methotrexate] | 59 | 51 |  | 
39 | COC(=O)c1ccccc1O [Methyl salicylate] | 67 | 15 |  | 58
40 | CN(C)c1ccc(C(=O)c2ccc(N(C)C)cc2)cc1 [Michlers ketone] |  |  | 22 | 27
41 | ClC1(Cl)C2(Cl)C3(Cl)C4(Cl)C(Cl)(Cl)C5(Cl)C3(Cl)C1(Cl)C5(Cl)C24Cl (centres undefined) [Mirex] | 28 | 36 |  | 
42 | CCSC(=O)N1CCCCCC1 [Molinate] | 61.5 ± 3.5 |  |  | 41
43 | CN(C)C(=O)Nc1ccc(Cl)cc1 [Monuron] | 82 | 8.6 |  | 
44 | C=CC(=O)NCNC(=O)C=C [N,N'-Methylenebisacrylamide] | 62 | 44 |  | 

Row | Compound | benchmark concentration (CHO-K1 [1]; [3]) [µM] | benchmark concentration (CHO-K1 [2]; [3]) [µM] | benchmark concentration (CHO-K1 [1]; [4]) [µM] | benchmark concentration (CHO-K1 [2]; [4]) [µM]
45 | CCNc1ccccc1 [N-Ethylaniline] | 35 | 77 |  | 
46 | CCN(CC)N=O [N-Nitrosodiethylamine] | 31 | 21 |  | 
47 | O=NN(c1ccccc1)c1ccccc1 [N-Nitrosodiphenylamine] | 25 | 72 |  | 120
48 | Nc1ccc(Nc2ccccc2)cc1 [N-Phenyl-1,4-benzenediamine] | < 4.5 |  |  | 87
49 | CC1(C)NC(=O)N(c2ccc([N+](=O)[O-])c(C(F)(F)F)c2)C1=O [Nilutamide] | 39 | 21 |  | 
50 | O=C1CN(/N=C/c2ccc([N+](=O)[O-])o2)C(=O)N1 [Nitrofurantoin] | 31 | 55 |  | 
51 | NC(=O)N/N=C/c1ccc([N+](=O)[O-])o1 [Nitrofurazone] | 68 | 24 |  | 
52 | O=C(O)C(F)(F)C(F)(F)C(F)(F)C(F)(F)C(F)(F)C(F)(F)C(F)(F)C(F)(F)C(F)(F)F [PFDA] | 73 |  |  | 73
53 | CCCCC=O [Pentanal] | 140 |  |  | 60
54 | Oc1ccccc1 [Phenol] | 57 | 100 |  | 
55 | c1ccc2c(c1)Nc1ccccc1S2 [Phenothiazine] |  |  | 25 | 17
56 | CCc1ccc(CCOc2ccc(CC3SC(=O)NC3=O)cc2)nc1 (centres undefined) [Pioglitazone hydrochloride] | 7.6 | < 4.5 |  | 
57 | c1cc2ccc3cccc4ccc(c1)c2c34 [Pyrene] | 110 |  |  | 40
58 | C/C=C/C=C/C(=O)O [Sorbic acid] | 37 | 29 |  | 
59 | c1ccc(C2CO2)cc1 (centres undefined) [Styrene oxide] | 19 | 96 |  | 
60 | O=C(OC[C@H]1O[C@@H](OC(=O)c2cc(O)c(O)c(OC(=O)c3cc(O)c(O)c(O)c3)c2)[C@H](OC(=O)c2cc(O)c(O)c(OC(=O)c3cc(O)c(O)c(O)c3)c2)[C@@H](OC(=O)c2cc(O)c(O)c(OC(=O)c3cc(O)c(O)c(O)c3)c2)[C@@H]1OC(=O)c1cc(O)c(O)c(OC(=O)c2cc(O)c(O)c(O)c2)c1)c1cc(O)c(O)c(OC(=O)c2cc(O)c(O)c(O)c2)c1 [Tannic acid] | 0.84 |  | 1.3 | 0.9
61 | COC(=O)NC(=S)Nc1ccccc1NC(=S)NC(=O)OC [Thiophanate-methyl] | 20.5 ± 3.5 | 16.7 ± 4.2 |  | 
62 | O=c1n(CC2CO2)c(=O)n(CC2CO2)c(=O)n1CC1CO1 (centres undefined) [Triglycidyl isocyanurate] | 25 | < 4.5 | 53 | < 4.5
63 | ClC(Cl)=C(c1ccc(Cl)cc1)c1ccc(Cl)cc1 [p,p'-DDE] | 16 | 29 |  | 51
64 | Cc1ccc(O)cc1 [p-Cresol] | 79 | 73 |  | 
